Laboratory results from patent US20100324091A1, “Pyrazolone Derivative” (Kowa Company, Ltd., priority 2007, published 2010).

Experiments:
[1] = system: C57BL/6 mice; assay: Bleomycin-induced lung fibrosis model; format: in vivo; conditions: Mus musculus, po, 504 h, 0.3 mg/kg orally once a day, three weeks after intratracheal bleomycin 6 mg/kg, vs solvent-administered group, read-out: Inhibitory ratio against the increment in the lung hydroxyproline amount
Source text: It is reported that administering bleomycin into the trachea induces fibrosis of the lung. According to the pathological observation, it is similar to clinical idiopathic pulmonary fibrosis in terms of the thickened fibrosis of the alveolar wall, an increase in inflammatory cells, an increment in the amount of hydroxyproline, etc., and is often used as a lung fibrosis experimental model (Biochem. Biophys. Res. Comm., 288, 747 (2001)). Bleomycin hydrochloride (Bleo: Nippon Kayaku Co., Ltd.) dissolved in physiological saline was injected with 500 μl of compressed air into the bronchi of C57BL/6 mice (6 week old, female) at 6 mg/kg and 25 μl/body. Three weeks after the intratracheal administration, the amount of hydroxyproline in the lung was measured. The materials to be tested, at 0.3 mg/kg per dose, were suspended in 0.5% sodium carboxymethyl cellulose, and administered orally once a day. The effect of the present invention is represented by a inhibitory ratio against the increment in the amount of lung hydroxyproline of the solvent-administered group, and is shown in Table 3 below.

[2] = system: PAI-1 production in human bronchial epithelial cells (BEAS-2B); assay: PAI-1 production inhibitory activity using bronchial epithelial cells; format: cell-based; conditions: BEAS-2B cells, TGF-β stimulation, 24 hrs, PAI-1 in supernatant by ELISA
Procedure: The effect of a compound against PAI-1 production activity was investigated using bronchial epithelial cells which reflect the PAI-1 concentration in the lung tissue involved in fibrosis (lung).
The effect against the amount of PAI-1 production was investigated using human bronchial epithelial cells (BEAS-2B). 0.1 ml of the BEAS-2B cells prepared to 2×10^5 cells/ml were added to each of the 96 wells of a collagen I coated plate, and precultured for 24 hrs. Then 0.1 ml of a medium containing […] of TGF-β was added, and after 24 hrs of incubation, the PAI-1 amount in the supernatant of the medium was measured by an ELISA kit. The materials to be tested were, after dissolved in dimethyl sulfoxide (the final concentration: 0.1% or lower), prepared to 0.2, 1, 5, and 25 μM with a phosphate buffer solution, and added to the preculture.

| Compound | inhibition in vivo at 0.3 mg/kg [1] [%] | IC50 [2] [µM] |
| --- | --- | --- |
| COc1ccc(C2=NN(c3ccccc3)C(=O)C2)cc1OC1CCCC1 [Compound No. 6, 3-(3-(cyclopentyloxy)-4-methoxyphenyl)-1-phenyl-5-pyrazolone] | 52 | 2.56 |
| COc1ccc(C2=NNC(=O)C2)cc1OC1Cc2ccccc2C1 [Compound No. 1, 3-(3-(2-indanyloxy)-4-methoxyphenyl)-5-pyrazolone] | 77 |  |
| COc1ccc(C2=NN(C)C(=O)C2)cc1OC1CCCC1 [Compound No. 4, 3-(3-(cyclopentyloxy)-4-methoxyphenyl)-1-methyl-5-pyrazolone] | 73 |  |
| COc1ccc(C2=NN(C)C(=O)C2)cc1OC1Cc2ccccc2C1 [Compound No. 2, 3-(3-(2-indanyloxy)-4-methoxyphenyl)-1-methyl-5-pyrazolone] | 75 | 1.42 |
| COc1ccc(C2=NN(c3ccc(C(=O)O)cc3)C(=O)C2)cc1OC1CCCC1 [Compound No. 7, 3-(3-(cyclopentyloxy)-4-methoxyphenyl)-1-(4-hydroxycarbonylphenyl)-5-pyrazolone] | 57 |  |
| COc1ccc(C2=NNC(=O)C2)cc1OCC1CC1 [Compound No. 9, 3-(3-(cyclopropylmethoxy)-4-methoxyphenyl)-5-pyrazolone] | 60 |  |
| O=C1CC(c2ccc(OC(F)F)c(OC3CCCC3)c2)=NN1 [Compound No. 8, 3-(3-(cyclopentyloxy)-4-(difluoromethoxy)phenyl)-5-pyrazolone] | 61 |  |
| COc1ccc(C2=NNC(=O)C2)cc1OC1CCCC1 [Compound No. 3, 3-(3-(cyclopentyloxy)-4-methoxyphenyl)-5-pyrazolone] | 73 | 7.59 |
| COc1ccc(C2=NN(c3ccccc3)C(=O)C2)cc1OC1Cc2ccccc2C1 [Compound No. 5, 3-(3-(2-indanyloxy)-4-methoxyphenyl)-1-phenyl-5-pyrazolone] | 75 |  |
